Laboratory results taken from patent US10851073B2, “Protein tyrosine phosphatase inhibitors and methods of use thereof” (Calico Life Sciences LLC, priority 2019, dated 2020).
Read-outs that look alike come from different tables or passages of the source.

What was measured:
[1] = system: Pan T cells isolated from C57BL6 splenocytes; test: T cell function assays (IFNγ and TNFα in supernatants); format: cell-based, mouse; details: 0.3 μM compound, 3 days; for IFNγ [pg/mL] anti-CD3/CD28 / TNFα [pg/mL] anti-CD3/CD28: anti-CD3/CD28 stimulation
Protocol: Example 231: T Cell Function Assays Pan T cells were isolated from C57BL6 splenocytes using a MACS Pan T cell isolation kit II (Miltenyi Biotec, Auburn, Calif.) according to the manufacturer's instructions. Isolated T cells (200,000 cells/well in a 96 well flat-bottom plate) were cultured in RPMI 1640 supplemented with 10% FBS, […] 2-mercaptoethanol, 100 U/mL penicillin, and 100 μg/mL streptomycin, and incubated with 0.3 μM compound or DMSO in duplicates. After 1 hour, mouse T cell activator CD3/CD28 Dynabeads (ThermoFisher Scientific, Waltham, Mass.) were added at a 1:5 beads to cells ratio to stimulate the T cells for 3 days. T cells with or without compound were incubated in the absence of T cell activator beads to evaluate if compounds nonspecifically stimulate the T cells. After 3 days of stimulation, supernatants were collected and IFNγ and TNFα in supernatants were assessed using an MSD V-plex assay (Meso Scale Discovery, Rockville, Md.).

[2] = system: B16F10 mouse melanoma cells; test: B16F10 IFNγ-induced cellular growth inhibition assay; format: cell-based; details: B16-F10, with 0.5 ng/mL IFNγ
In short: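 B16F10 cells grown in DMEM+10% FBS, with or without 0.5 ng/mL final mouse IFNγ, and dosed in triplicate at 100 μM to 0.001 μM final (0.1% DMSO). Confluence imaged every 6 h for 5 days; percent growth inhibition versus DMSO/with-IFNγ control taken once DMSO/no-IFNγ wells exceeded 95% confluence, giving IC50.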

[3] = system: IFNγ-induced STAT1 phosphorylation in CD14+ monocytes; test: Human whole blood pSTAT1 proximal pharmacodynamic (PD) assay; format: cell-based; details: Monocyte, 3 hours compound, IFNγ 20 minutes
Protocol: Example 230: Human Whole Blood pSTAT1 Proximal Pharmacodynamic (PD) Assay Human blood samples were acquired through internal AbbVie Inc's blood donation program in accordance with AbbVie's Occupational Safety and Health Administration protocols. Blood was collected by venipuncture into sodium heparin coated vacutainer tubes and kept at room temperature for no longer than 1 hour prior to the experiment initiation. Human blood samples (90 μL) were added to the individual wells of 96-well plates containing 10 μL of 10× working stock solutions of increasing concentrations of compounds to achieve final concentrations ranging from 0.025 μM to 500 μM and incubated for 3 hours at 37° C. To induce STAT1 phosphorylation the samples were then treated with recombinant human IFNγ (R&D Systems, Catalog^#285-IF, Minneapolis, Minn.; 100 nM final concentration) for 20 minutes, and 3 μL/well BV421 labeled anti-CD14 surface antibody (Biolegend, San Diego, Calif., Catalog^#301830) was added for 45 minutes before fixation and red blood cell lysis was performed with BD Phosflow Lyse/Fix buffer (BD Biosciences, San Jose, Calif., Catalog^#558049). Cells were subsequently permeabilized on ice by the addition of BD Perm III buffer (BD Biosciences, San Jose, Calif., Catalog^#558050) and stored at -80° C. until use. Before staining, the cells were washed with PBS containing 0.1% BSA. Optim/zed concentrations of BUV395 labeled anti-CD45 (BD Biosciences, San Jose, Calif., Catalog^#563792) and PE labeled anti-phospho-STAT1 ([…]; Invitrogen, Carlsbad, Calif., Catalog^#12-9008-42) antibodies were added to the cell suspensions and incubated for 2 hours. The cells were washed with PBS containing 0.1% BSA and analyzed on a BD LSRFortessaTM X20 flow cytometer (BD Biosciences, San Jose, Calif.) using BD FACSDivaTM software. The data was analyzed using FlowJo V10 analysis software (Flow Jo LLC, Ashland, Oreg.). The amount of STAT phosphorylation was measured by the mean fluorescence intensity (MFI) of pSTAT1 in CD14+monocytes. Compound dose-response curves were determined using a four-parameter logistic-nonlinear regression model from which half maximal effective concentrations (EC50) were calculated. All statistical analyses utilized GraphPad software (San Diego, Calif.).

[4] = target: T1, His tagged PTPN2 (TC45) protein (Homo sapiens, UniProt P17706); test: Mobility shift assay used to determine potency of PTPN2 inhibitors; format: biochemical; details: enzyme 0.5 nM, substrate 2 μM; read-out: PTPN2 MSA IC50
T1 construct: made in house
T1 sequence (P17706 with tags, fused parts or gaps isoform P17706-2): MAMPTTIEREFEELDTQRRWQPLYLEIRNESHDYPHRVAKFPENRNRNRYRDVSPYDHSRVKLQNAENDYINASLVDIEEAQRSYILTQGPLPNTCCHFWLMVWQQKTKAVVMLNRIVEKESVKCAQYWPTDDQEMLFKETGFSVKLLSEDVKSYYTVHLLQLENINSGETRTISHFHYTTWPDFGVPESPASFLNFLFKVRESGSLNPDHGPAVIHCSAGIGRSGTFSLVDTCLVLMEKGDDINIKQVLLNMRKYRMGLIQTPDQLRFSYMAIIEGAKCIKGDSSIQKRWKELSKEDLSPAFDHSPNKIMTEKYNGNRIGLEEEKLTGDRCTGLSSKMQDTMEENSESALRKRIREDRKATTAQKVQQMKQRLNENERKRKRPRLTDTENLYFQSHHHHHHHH
In short: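 Microfluidic mobility-shift read-out (488/530 nm) of dephosphorylation of an OG488-tagged phosphotyrosine insulin receptor peptide, 2 μM, over 10 min at room temperature, after 10 min compound preincubation with 0.5 nM enzyme. Buffer: 50 mM HEPES pH 7.5, EGTA, EDTA, Tween 20, DTT. IC50 derived from % inhibition over 12-point 1:3 series.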

[5] = target: T2, His tagged full-length PTPN1 protein (Homo sapiens, UniProt P18031); test: Mobility shift assay (MSA) used to determine potency of PTPN1 inhibitors; format: biochemical; details: enzyme 0.5 nM, substrate 2 μM
T2 construct: made in house
T2 sequence (P18031 with tags, fused parts or gaps): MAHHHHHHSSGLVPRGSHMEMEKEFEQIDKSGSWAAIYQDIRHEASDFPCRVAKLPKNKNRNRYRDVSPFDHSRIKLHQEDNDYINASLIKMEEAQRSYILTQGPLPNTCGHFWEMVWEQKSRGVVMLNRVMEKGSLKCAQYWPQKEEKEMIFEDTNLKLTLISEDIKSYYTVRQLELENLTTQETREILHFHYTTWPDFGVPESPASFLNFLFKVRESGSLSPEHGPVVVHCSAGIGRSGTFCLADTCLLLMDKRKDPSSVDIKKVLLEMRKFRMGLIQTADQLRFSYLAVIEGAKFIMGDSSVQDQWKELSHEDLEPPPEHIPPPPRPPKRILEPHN
In short: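 Full-length His-tagged human PTPN1 (0.5 nM) was preincubated 10 min at room temperature with compound (12-point, 1:3 dilution) in HEPES pH 7.5 buffer with EGTA, EDTA, Tween 20 and DTT. A 2 μM fluorescent phospho-insulin receptor peptide was then added for 10 min before quench. Mobility-shift % conversion gave % inhibition and IC50.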

[6] = read-out: B16F10 Growth Inhibition IC50

SMILES | IC50 ([2]; read-out: B16F10 GI IC50) [nM] | IC50 [2, 6] [nM] | EC50 [3] [nM] | IC50 [5] [nM] | IFNγ [pg/mL] anti-CD3/CD28 [1] [pg/mL] | TNFα [pg/mL] anti-CD3/CD28 [1] [pg/mL] | IFNγ [pg/mL] no stimulation [1] [pg/mL] | TNFα [pg/mL] no stimulation [1] [pg/mL] | IC50 [4] [nM]
CCC(CC)CCN[C@@H]1CCc2cc(O)c(N3CC(=O)NS3(=O)=O)c(F)c2C1 [Compound 204, 5-{(7R)-7-[(3-ethylpentyl)amino]-1-fluoro-3-hydroxy-5,6,7,8-tetrahydronaphthalen-2-yl}-1λ^6,2,5-thiadiazolidine-1,1,3-trione] |  |  |  |  | 148.8 | 105.4 | 1.8 | 1.1 | 
O=C1CN(c2c(O)cc3c(c2F)C[C@H](NCCC2CCCC2)CC3)S(=O)(=O)N1 [Compound 200, 5-{(7R)-7-[(2-cyclopentylethyl)amino]-1-fluoro-3-hydroxy-5,6,7,8-tetrahydronaphthalen-2-yl}-1λ^6,2,5-thiadiazolidine-1,1,3-trione] | < 1000 | < 50 | 2400 |  |  |  |  |  | 
O=C1CN(c2c(O)cc3c(c2F)C[C@H](NCCCC(F)(F)F)CC3)S(=O)(=O)N1 (single isomer, unassigned) [Compound 146] | < 1000 | < 50 | 400 |  |  |  |  |  | 1 to 10
CC(C)CCCC1(N)CCc2cc(O)c(N3CC(=O)NS3(=O)=O)c(F)c2C1 (centres unmarked) [Compound 254, 5-[7-amino-1-fluoro-3-hydroxy-7-(4-methylpentyl)-5,6,7,8-tetrahydronaphthalen-2-yl]-1λ^6,2,5-thiadiazolidine-1,1,3-trione] | 1000 to 10000 |  |  | 10 to 100 | 97.0 | 91.2 | 0.7 | 1.1 | 10 to 100
O=C1CN(c2c(O)cc3c(c2F)C[C@H](NCCC2(C(F)(F)F)CC2)CC3)S(=O)(=O)N1 (single isomer, unassigned) [Compound 148] | < 1000 |  |  | < 1 | 168.4 | 123.4 | 1.0 | 0.8 | < 1

Further lines, with some results ahead:

IC50 ([2]; read-out: B16F10 GI IC50) [nM] | IC50 [2, 6] [nM] | EC50 [3] [nM] | IC50 [5] [nM] | SMILES | IFNγ [pg/mL] anti-CD3/CD28 [1] [pg/mL] | TNFα [pg/mL] anti-CD3/CD28 [1] [pg/mL] | IFNγ [pg/mL] no stimulation [1] [pg/mL] | TNFα [pg/mL] no stimulation [1] [pg/mL] | IC50 [4] [nM]
< 1000 |  |  | 1 to 10 | CC(C)CCNC[C@@H]1Cc2cc(O)c(N3CC(=O)NS3(=O)=O)c(F)c2C1 (single isomer, unassigned) [Compound 291] | 83.3 | 91.2 | 0.7 | 1.1 | 1 to 10
< 1000 |  |  | 1 to 10 | C[C@@H](O)CCN[C@@H]1CCc2cc(O)c(N3CC(=O)NS3(=O)=O)c(F)c2C1 (single isomer, unassigned) [Compound 307] | 66.7 | 89.5 | 1.2 | 1.1 | 1 to 10
 | 5800 | 38000 |  | CC(C)(O)CCOc1ccc2cc(O)c(N3CC(=O)NS3(=O)=O)c(F)c2c1 [Compound Y] | 67.2 | 32.5 | 1.2 | 1.0 | 
 | 17800 | > 500000 |  | CCC1CCc2cc(O)c(N3CC(=O)NS3(=O)=O)c(F)c2C1 (centres unmarked) [Compound Z] |  |  |  |  | 
